Experimental data: ChEMBL document CHEMBL1201862, “PubChem BioAssay data set” (2004)
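Briefly, cells in 96-well plates were exposed to five compound concentrations for 48 h, and endpoints were estimated by linear interpolation. GI50: concentration for 50% inhibition of growth.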 The source made the active and inactive calls. No stated cut-off is given here; in the data, active = GI50 up to about 1.1 µM and inactive = higher.

Columns and labels:
Assay in all cases: inhibition of tumour cell growth, NCI panel, 48 h
T47D = system: T47D
SF-295 = system: SF-295
HOP-62 = system: HOP-62
HCT-15 = system: HCT-15
MOLT-4 = system: MOLT-4
COLO 205 = system: COLO 205
M14 = system: M14
MDA-MB-435 = system: MDA-MB-435
SNB-19 = system: SNB-19
CAKI-1 = system: CAKI-1
OVCAR-5 = system: OVCAR-5
MDA-MB-231 = system: MDA-MB-231
CCRF-CEM = system: CCRF-CEM
BT-549 = system: BT-549
SW-620 = system: SW-620
K562 = system: K562
NCI-H460 = system: NCI-H460
OVCAR-8 = system: OVCAR-8
MCF7 = system: MCF7
DU-145 = system: DU-145

| SMILES | GI50 (T47D) | GI50 (SF-295) | GI50 (HOP-62) | GI50 (HCT-15) [µM] | GI50 (MOLT-4) | GI50 (COLO 205) | GI50 (M14) | GI50 (MDA-MB-435) | GI50 (SNB-19) | GI50 (CAKI-1) | GI50 (OVCAR-5) | GI50 (MDA-MB-231) | GI50 (CCRF-CEM) | GI50 (BT-549) | GI50 (SW-620) | GI50 (K562) | GI50 (NCI-H460) | GI50 (OVCAR-8) | GI50 (MCF7) | GI50 (DU-145) |
| --- | --- | --- | --- | --- | --- | --- | --- | --- | --- | --- | --- | --- | --- | --- | --- | --- | --- | --- | --- | --- |
| O=C1CCc2nc3ncccc3cc2C1 | > 100 µM (inactive) | > 100 µM (inactive) | > 100 µM (inactive) | 96.4 | 29.9 µM (inactive) | > 100 µM (inactive) | > 100 µM (inactive) | 44 µM (inactive) | > 100 µM (inactive) | > 100 µM (inactive) | > 100 µM (inactive) | > 100 µM (inactive) | 30.5 µM (inactive) | > 100 µM (inactive) | 54.8 µM (inactive) | 29.2 µM (inactive) | 99.5 µM (inactive) | – | – | – |
| Clc1ccccc1CN1COc2c(cc(Cl)c3cccnc23)C1 | 6.05 µM (inactive) | 1.85 µM (inactive) | 3.05 µM (inactive) | 0.165 | 0.28 µM (active) | 19 µM (inactive) | 3.77 µM (inactive) | 6.19 µM (inactive) | 4.35 µM (inactive) | 4.49 µM (inactive) | 4.28 µM (inactive) | 2.3 µM (inactive) | – | – | 5.01 µM (inactive) | 2.99 µM (inactive) | 2.75 µM (inactive) | 2.85 µM (inactive) | 4.94 µM (inactive) | 7.19 µM (inactive) |
| Cc1cc2c(cc1Cl)SSc1cc(Cl)c(C)cc1S(=O)(=O)Nc1nc(N)nn1C(O)n1nc(N)nc1NS2(=O)=O | > 10 µM (inactive) | > 10 µM (inactive) | > 10 µM (inactive) | > 10 | > 10 µM (inactive) | > 10 µM (inactive) | > 10 µM (inactive) | – | > 10 µM (inactive) | > 10 µM (inactive) | > 10 µM (inactive) | – | > 10 µM (inactive) | > 10 µM (inactive) | > 10 µM (inactive) | > 10 µM (inactive) | > 10 µM (inactive) | > 10 µM (inactive) | > 10 µM (inactive) | > 10 µM (inactive) |
| C[C@@H]1C(=O)O[C@@H]2C[C@@]1(C)[C@@H]1C(=O)C3(O)OC14C2(C)OC(=O)[C@@]4(O)CCC1C3C(O)C=C2CC=CC(=O)[C@@]21C (some centres undefined) | 31.3 µM (inactive) | 33.3 µM (inactive) | 63.5 µM (inactive) | 34.4 | 20.7 µM (inactive) | 34 µM (inactive) | 21.6 µM (inactive) | 20.4 µM (inactive) | 3.24 µM (inactive) | 21.3 µM (inactive) | 25.5 µM (inactive) | 28.8 µM (inactive) | 13.6 µM (inactive) | – | 40.2 µM (inactive) | 23.9 µM (inactive) | 29.9 µM (inactive) | 31.3 µM (inactive) | 36.3 µM (inactive) | 30.3 µM (inactive) |
| O=[N+]([O-])CC(SCc1ccccc1)c1ccc2c(c1)OCO2 (centres undefined) | 19.6 µM (inactive) | 7.76 µM (inactive) | 17.4 µM (inactive) | 3.84 | 3.37 µM (inactive) | 8.24 µM (inactive) | 5.6 µM (inactive) | 2.5 µM (inactive) | 14 µM (inactive) | 14.2 µM (inactive) | 15.2 µM (inactive) | 10.3 µM (inactive) | 2.54 µM (inactive) | – | 3.81 µM (inactive) | 1.55 µM (inactive) | 14.8 µM (inactive) | 8.49 µM (inactive) | 3.04 µM (inactive) | 14.5 µM (inactive) |
| COC(=O)[C@@H]1CN(C(=O)c2ccccc2)C(=O)N1C(=O)OCc1ccccc1 | > 100 µM (inactive) | > 100 µM (inactive) | > 100 µM (inactive) | > 100 | > 100 µM (inactive) | > 100 µM (inactive) | > 100 µM (inactive) | > 100 µM (inactive) | > 100 µM (inactive) | > 100 µM (inactive) | > 100 µM (inactive) | > 100 µM (inactive) | > 100 µM (inactive) | – | > 100 µM (inactive) | > 100 µM (inactive) | > 100 µM (inactive) | > 100 µM (inactive) | > 100 µM (inactive) | > 100 µM (inactive) |
| CN1CN(c2ccccc2)C2(CCN(CCCC3(c4cccs4)OCCO3)CC2)C1=O | > 100 µM (inactive) | > 100 µM (inactive) | > 100 µM (inactive) | > 100 | > 100 µM (inactive) | > 100 µM (inactive) | 96.8 µM (inactive) | > 100 µM (inactive) | > 100 µM (inactive) | > 100 µM (inactive) | > 100 µM (inactive) | > 100 µM (inactive) | > 100 µM (inactive) | – | > 100 µM (inactive) | > 100 µM (inactive) | > 100 µM (inactive) | > 100 µM (inactive) | > 100 µM (inactive) | > 100 µM (inactive) |
| CN(C)c1ccc(/C=C2\C[C@H]3[C@@H]4CCC5=CC(=O)CC[C@]5(C)[C@H]4CC[C@]3(C)C2=O)cc1 | 17.4 µM (inactive) | > 100 µM (inactive) | > 100 µM (inactive) | 34.4 | 14.8 µM (inactive) | 21.7 µM (inactive) | 43.9 µM (inactive) | – | > 100 µM (inactive) | > 100 µM (inactive) | > 100 µM (inactive) | 38.9 µM (inactive) | – | 51.2 µM (inactive) | 48.9 µM (inactive) | 19 µM (inactive) | 17.4 µM (inactive) | 31.8 µM (inactive) | 21.8 µM (inactive) | 76.6 µM (inactive) |
| C=CN1C(=O)OC[C@@H]1c1ccccc1 | – | > 100 µM (inactive) | > 100 µM (inactive) | 16.6 | > 100 µM (inactive) | > 100 µM (inactive) | > 100 µM (inactive) | – | > 100 µM (inactive) | > 100 µM (inactive) | > 100 µM (inactive) | – | > 100 µM (inactive) | – | 19.1 µM (inactive) | > 100 µM (inactive) | > 100 µM (inactive) | > 100 µM (inactive) | – | – |
| O=C1NC(O)n2c(=O)[nH]c(=O)n21 (centres undefined) | – | > 100 µM (inactive) | > 100 µM (inactive) | > 100 | > 100 µM (inactive) | > 100 µM (inactive) | > 100 µM (inactive) | – | > 100 µM (inactive) | > 100 µM (inactive) | > 100 µM (inactive) | – | > 100 µM (inactive) | – | > 100 µM (inactive) | > 100 µM (inactive) | > 100 µM (inactive) | > 100 µM (inactive) | – | – |
| O=[N+]([O-])C(/C=C(\Cl)[N+](=O)[O-])=C(N1CCCCC1)N1CCCCC1 | 53 µM (inactive) | > 100 µM (inactive) | 39.6 µM (inactive) | 25.3 | 30.7 µM (inactive) | 21.5 µM (inactive) | 20.1 µM (inactive) | 16.7 µM (inactive) | > 100 µM (inactive) | > 100 µM (inactive) | 95.5 µM (inactive) | 92 µM (inactive) | 13.2 µM (inactive) | – | – | 27 µM (inactive) | 36.1 µM (inactive) | 44.8 µM (inactive) | 0.631 µM (active) | 62.5 µM (inactive) |
| CC(C)=CCNc1nc(Cl)nc2[nH]cnc12 | 92 µM (inactive) | 42.6 µM (inactive) | 27.9 µM (inactive) | – | 84.9 µM (inactive) | > 100 µM (inactive) | > 100 µM (inactive) | > 100 µM (inactive) | 29 µM (inactive) | > 100 µM (inactive) | > 100 µM (inactive) | 21.5 µM (inactive) | 76.6 µM (inactive) | – | > 100 µM (inactive) | 32.1 µM (inactive) | 16.7 µM (inactive) | 46.5 µM (inactive) | 29.6 µM (inactive) | > 100 µM (inactive) |
| O=C(Nc1ccc(Cl)cc1C(F)(F)F)C(=O)Nn1c(S)nc2ccccc2c1=O | > 100 µM (inactive) | > 100 µM (inactive) | > 100 µM (inactive) | > 100 | > 100 µM (inactive) | – | > 100 µM (inactive) | > 100 µM (inactive) | – | > 100 µM (inactive) | > 100 µM (inactive) | > 100 µM (inactive) | 59.8 µM (inactive) | > 100 µM (inactive) | > 100 µM (inactive) | > 100 µM (inactive) | > 100 µM (inactive) | > 100 µM (inactive) | > 100 µM (inactive) | – |
| O=S1(=O)c2ccccc2NC(c2ccc3ccccc3c2)CC1c1ccccc1F (centres undefined) | – | > 100 µM (inactive) | > 100 µM (inactive) | > 100 | > 100 µM (inactive) | > 100 µM (inactive) | > 100 µM (inactive) | – | > 100 µM (inactive) | > 100 µM (inactive) | > 100 µM (inactive) | – | > 100 µM (inactive) | – | > 100 µM (inactive) | > 100 µM (inactive) | > 100 µM (inactive) | > 100 µM (inactive) | – | – |
| CC1CCC2C(C)(C)CC3(C)CCC1C23O (centres undefined) | – | 12.7 µM (inactive) | 16.4 µM (inactive) | 16.9 | 11.2 µM (inactive) | 18.3 µM (inactive) | 16 µM (inactive) | 15.6 µM (inactive) | 29.1 µM (inactive) | 14.2 µM (inactive) | 18.9 µM (inactive) | 16.2 µM (inactive) | 4.02 µM (inactive) | 18.1 µM (inactive) | 16 µM (inactive) | 12.4 µM (inactive) | 17 µM (inactive) | 17.2 µM (inactive) | 15.8 µM (inactive) | – |
| CC(N)Cc1ccc(Cl)c(Cl)c1 (centres undefined) | – | > 52.2 µM (inactive) | 39.5 µM (inactive) | 30 | 29.2 µM (inactive) | 20.3 µM (inactive) | 18.4 µM (inactive) | – | > 96.6 µM (inactive) | 23.6 µM (inactive) | 30.1 µM (inactive) | – | 28.2 µM (inactive) | – | 22 µM (inactive) | 21.7 µM (inactive) | 30.1 µM (inactive) | > 66.2 µM (inactive) | – | – |
